Results published in US20260250337A1, “HYBRID ANTIMICROBIAL PEPTIDES” (UNIVERSIDADE FEDERAL DO ABC, priority 2023, published 2026).
No end group written: not given here.

Assays:
A. baumannii ATCC19606 [1] = assay: NPN uptake assay, outer membrane permeabilization; assay type: cell-based; settings: peptides at their MIC
Method: Method. Membrane permeabilization was assessed for two of the naturally occurring peptides (VmCT1 and temporin A) and two of the hybrids [VmCT1-temporin A (VT) and temporin A-VmCT1 (TV)] at their MIC by using the N-phenyl-1-naphthylamine (NPN) uptake assay as previously described^104, 105. Briefly, A. baumannii ATCC19606 cells were grown to an optical density at 600 nm (OD600) of 0.4, centrifuged (10,000 rpm at 4° C. to 10 minutes), washed, and resuspended in buffer (5 mmol L^−1 HEPES, 5 mmol L^−1 glucose, pH 7.4). Four μL of NPN solution (0.5 mmol L^−1; working concentration of 10 μmol L^−1, after dilutions) was added to 100 μL of the bacterial solution in 96-well plates. The background fluorescence was then determined at λex=350 nm and […]. The peptides resuspended in water (100 μL at a concentration of 1.2 μmol L^−1) were added to each 96-well plate. The fluorescence was determined as a function of time until no further increase in fluorescence was observed (45 min).

M. luteus A270 = assay: Liquid growth inhibition assay, MIC; assay type: cell-based, Micrococcus luteus; settings: 37° C., 18 h
Procedure, shortened: (§1)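 Antifungal tests used Potato Dextrose Broth with 24 h incubation, and antibacterial tests used Peptone Broth with 18 h incubation, both at 37° C. Peptide was titrated two-fold from 0.09 to 50 μmol L^−1, with growth scored by absorbance at 595 nm.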

C. tropicalis IOC 4560 = assay: Liquid growth inhibition assay, MIC (antifungal); assay type: cell-based, Candida tropicalis; settings: 37° C., 24 h
Procedure, shortened: as §1

human erythrocytes = assay: Hemolytic activity assay; assay type: cell-based; settings: human erythrocytes, 1 h; for MHC: room temperature, concentration with approximately 0% of hemolytic activity
Procedure, shortened: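 Fresh heparinised human erythrocytes incubated with peptide at 0.1 to 100 μmol L−1 for 1 h at room temperature; supernatant absorbance at 405 nm after centrifugation. MHC taken as highest concentration with 100% erythrocytes viable; SDS and PBS as positive and negative controls, three biological repeats.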

S. marcescens ATCC 4112 = assay: Liquid growth inhibition assay, MIC; assay type: cell-based, Serratia marcescens; settings: 37° C., 18 h
Procedure, shortened: as §1

A. baumannii ATCC19606 [2] = assay: Broth microdilution MIC, ESKAPE pathogens; assay type: cell-based; settings: LB, 37° C., 24 h
Method: (§2) Method. The minimal inhibitory concentration (MIC) against the ESKAPE pathogens was determined using the broth microdilution method^81, 82 in Luria-Bertani (LB) medium. The MIC value was defined as the lowest concentration of peptide at which no microbial growth was observed. A. baumannii ATCC19606, E. coli ATCC11775, E. coli AIC221, E. coli AIC222, K. pneumoniae ATCC13883, S. aureus ATCC12600 P. aeruginosa PAO1, and P. aeruginosa PA14 were incubated on agar plates, and after 24 h, three isolated colonies were inoculated to 5 mL of Luria-Bertani (LB) broth and maintained at 37° C. overnight with shaking. Peptides were then added to 96-well polystyrene microtiter plates at concentrations ranging from 0 to 128 μmol L^−1, and 5×10^5 CFU mL^−1 of each bacterium was inoculated in each well. The plates were incubated at 37° C. for 24 h. Bacterial growth was measured using a microplate reader at 610 nm. Three independent replicates were performed.

S. aureus ATCC12600 = assay: Broth microdilution MIC, ESKAPE pathogens; assay type: cell-based; settings: LB, 37° C., 24 h
Method: as §2

E. coli AIC222 = assay: Broth microdilution MIC, ESKAPE pathogens; assay type: cell-based; settings: LB, 37° C., 24 h
Method: as §2

E. coli ATCC11775 = assay: Broth microdilution MIC, ESKAPE pathogens; assay type: cell-based; settings: LB, 37° C., 24 h
Method: as §2

P. aeruginosa PAO1 = assay: Broth microdilution MIC, ESKAPE pathogens; assay type: cell-based; settings: LB, 37° C., 24 h
Method: as §2

K. pneumoniae ATCC13883 = assay: Broth microdilution MIC, ESKAPE pathogens; assay type: cell-based; settings: LB, 37° C., 24 h
Method: as §2

E. coli AIC221 = assay: Broth microdilution MIC, ESKAPE pathogens; assay type: cell-based; settings: LB, 37° C., 24 h
Method: as §2

P. aeruginosa PA14 = assay: Broth microdilution MIC, ESKAPE pathogens; assay type: cell-based; settings: LB, 37° C., 24 h
Method: as §2

E. cloacae β-12 = assay: Liquid growth inhibition assay, MIC; assay type: cell-based, Enterobacter cloacae; settings: 37° C., 18 h
Procedure, shortened: as §1

B. megaterium ATCC 10778 = assay: Liquid growth inhibition assay, MIC; assay type: cell-based, Bacillus megaterium; settings: 37° C., 18 h
Procedure, shortened: as §1

[3] = tested on: Plasmodium gallinaceum sporozoites; assay: Antiplasmodial activity, fluorescence microscopy; assay type: cell-based; settings: for P. gallinaceum (% sporozoites at 0.8 μmol L^−1): fluorescent (propidium iodide stained) sporozoites, 37° C., 1 h; for antiplasmodial activity: P. gallinaceum sporozoites, concentration range tested
Method: Method. The activity of the peptides against Plasmodium gallinaceum sporozoites was determined by fluorescence microscopy, as previously described by Silva et. al.^83. Briefly, 9,000 sporozoites were isolated from the glands of infected Aedes aegypti mosquitos and incubated with serially diluted peptides (ranging from 0.1 to 1.6 μmol L^−1) at 37° C. for 1 h. A PBS solution and the surfactant digitonin^84, 85 were used as negative and positive controls, respectively. Propidium iodide was used to stain dead cells. Assays were executed using fluorescence microscopy. Three biological repeats each with three different mosquito batches (n=9) were used.

| Substance | outer membrane permeabilization, NPN fluorescence (A. baumannii ATCC19606 [1]) | MIC M. luteus A270 (M. luteus A270) [µM] | MIC C. tropicalis IOC 4560 (C. tropicalis IOC 4560) [µM] | Hemolytic activity, concentration of peptide needed to kill 10% of red blood cells (human erythrocytes) [µmol/L] | MHC (human erythrocytes) [µmol/L] | MIC S. marcescens ATCC 4112 (S. marcescens ATCC 4112) [µM] | MIC A. baumannii ATCC19606 (A. baumannii ATCC19606 [2]) [µM] | MIC S. aureus ATCC12600 (S. aureus ATCC12600) [µM] | MIC E. coli AIC222 (E. coli AIC222) [µM] | MIC E. coli ATCC11775 (E. coli ATCC11775) [µM] | MIC P. aeruginosa PAO1 (P. aeruginosa PAO1) [µM] | MIC K. pneumoniae ATCC13883 (K. pneumoniae ATCC13883) [µM] | MIC E. coli AIC221 (E. coli AIC221) [µM] | MIC P. aeruginosa PA14 (P. aeruginosa PA14) [µM] | MIC E. cloacae β-12 (E. cloacae β-12) [µM] | MIC B. megaterium ATCC 10778 (B. megaterium ATCC 10778) [µM] | P. gallinaceum (% sporozoites at 0.8 μmol L^−1) [3] [%] | antiplasmodial activity [3] |
| --- | --- | --- | --- | --- | --- | --- | --- | --- | --- | --- | --- | --- | --- | --- | --- | --- | --- | --- |
| FLGAIGNVLKSIL-NH2 [TV, Phe-Leu-Gly-Ala-Ile-Gly-Asn-Val-Leu-Lys-Ser-Ile-Leu] | increased fluorescence compared to the control | 6.3 | 3.1 | 0.2 | 0.2 | 6.3 | 16 | 16 | 8 | 32 | 128 | 16 | 16 | 128 | >50 | 6.3 | 83 | exhibited antiplasmodial activity |
| FLGALWNVAKSVF-NH2 [VmCT1, Phe-Leu-Gly-Ala-Len-Trp-Asu-Val-Ala-Lys-Ser-Val-Phe, reference compound] | increased fluorescence compared to the control | 0.8 | 12.5 | – | 6.3 | 0.4 | 8 | 8 | 16 | 16 | 128 | 64 | 32 | 128 | >50 | 1.6 | 93 | – |
| FLPLIGRVLSGIL-NH2 [Temporin A, Phe-Leu-Pro-Leu-Ile-Gly-Arg-Val-Leu-Ser-Gly-Ile-Leu, reference compound] | increased fluorescence compared to the control | 3.1 | 12.5 | 0.2 | 0.2 | 12.5 | 32 | 8 | 32 | 64 | 128 | 128 | 128 | 128 | >50 | 6.3 | 15 | no activity |
| FLPLLWRVASGVF-NH2 [VT, Phe-Leu-Pro-Leu-Leu-Trp-Arg-Val-Ala-Ser-Gly-Val-Phe] | did not lead to increased fluorescence compared to the control | 3.1 | 25 | 0.2 | 0.2 | 12.5 | 16 | 4 | 32 | 64 | 128 | 128 | 128 | 128 | >50 | 6.3 | 2 | did not exhibit significant antiplasmodial activity |
| ILGAILNVLKSLG-NH2 [PV, Ile-Leu-Gly-Ala-Ile-Leu-Asn-Val-Leu-Lys-Ser-Leu-Gly] | – | 3.1 | 6.3 | 25 | 25 | 12.5 | 32 | 16 | 16 | 32 | – | 64 | 32 | 128 | >50 | 12.5 | 41 | – |
